Experimental data taken from US10596171B2, “Cap-dependent endonuclease inhibitors” (priority 2018, dated 2020).

What follows are compounds tested on influenza B virus (assay: microbe, parasite or virus in culture). Conditions: MDCK, 72 h, read-out: EC50 (reduce virus-induced CPE by 50%).
Assay type: cell-based
`O=C1c2c(O)c(=O)ccn2N(C2c3ccccc3SCc3c(F)cccc32)CC12CC2` (stereo not drawn) [Compound 1, 1-(1-Fluoro-5,11-dihydro-10-thia-dibenzo[a,d]cyclohepten-5-yl)-5-hydroxy-3,3-cyclopropyl-2,3-dihydro-1H-pyrido[1,2-b]pyridazine-4,6-dione] showed an EC50 of 100 to 1000 nM. In the case of `O=C1c2c(O)c(=O)ccn2N(C2c3ccccc3SCc3c2ccc(F)c3F)CC12CC2` (stereo not drawn) [Compound 2], the EC50 is reported as less than 100 nM. Work on `O=C1c2c(O)c(=O)ccn2N(C2c3ccc(F)cc3CSc3c(Cl)cccc32)CC12CC2` (stereo not drawn) [Compound 3] yielded an EC50 of less than 100 nM. `O=C1c2c(O)c(=O)ccn2N(C2c3ccc(Cl)cc3CSc3ccccc32)CC12CC2` (stereo not drawn) [Compound 4] gave an EC50 of less than 100 nM. For `O=C1c2c(O)c(=O)ccn2N(C2c3ccc(F)cc3CSc3c(F)cccc32)CC12CC2` (stereo not drawn) [Compound 5], the EC50 was less than 100 nM. `Cc1cccc2c1SCc1cc(Cl)ccc1C2N1CC2(CC2)C(=O)c2c(O)c(=O)ccn21` (stereo not drawn) [Compound 6] was tested, and the EC50 was 100 to 1000 nM. `Cc1cccc2c1SCc1cc(F)ccc1C2N1CC2(CC2)C(=O)c2c(O)c(=O)ccn21` (stereo not drawn) [Compound 7] showed an EC50 of less than 100 nM. `O=C1c2c(O)c(=O)ccn2N(C2c3ccc(F)cc3CSc3ccccc32)CC12CC2` (stereo not drawn) [Compound 8] gave an EC50 of less than 100 nM. Compound `O=C1c2c(O)c(=O)ccn2N(C2c3ccccc3CSc3c(F)cccc32)CC12CC2` (stereo not drawn) [Compound 9] has an EC50 of less than 100 nM. Compound `Cc1cccc2c1SCc1c(F)cccc1C2N1CC2(CC2)C(=O)c2c(O)c(=O)ccn21` (stereo not drawn) [Compound 10] has an EC50 of 100 to 1000 nM. Compound `Cc1cccc2c1SCc1ccccc1C2N1CC2(CC2)C(=O)c2c(O)c(=O)ccn21` (stereo not drawn) [Compound 11] has an EC50 of 100 to 1000 nM. `O=C1c2c(O)c(=O)ccn2N(C2c3cccc(F)c3CSc3c(Cl)cccc32)CC12CC2` (stereo not drawn) [Compound 12] was tested, and the EC50 was 100 to 1000 nM. `O=C1c2c(O)c(=O)ccn2N(C2c3ccccc3CSc3c(Cl)cccc32)CC12CC2` (stereo not drawn) [Compound 13] gave an EC50 of 100 to 1000 nM. Compound `O=C1c2c(O)c(=O)ccn2N(C2c3ccc(Cl)cc3CSc3c(F)cccc32)CC12CC2` (stereo not drawn) [Compound 14] has an EC50 of less than 100 nM. With `O=C1c2c(O)c(=O)ccn2N(C2c3ccc(F)cc3COc3c(Cl)cccc32)CC12CC2` (stereo not drawn) [Compound 15] the EC50 was less than 100 nM. `Cc1cccc2c1SCc1c(ccc(F)c1F)C2N1CC2(CC2)C(=O)c2c(O)c(=O)ccn21` (stereo not drawn) [Compound 16] gave an EC50 of 100 to 1000 nM. `O=C1c2c(O)c(=O)ccn2N(C2c3ccc(F)c(F)c3CSc3c(F)cccc32)CC12CC2` (stereo not drawn) [Compound 17] was tested, and the EC50 was less than 100 nM. With `O=C1c2c(O)c(=O)ccn2N(C2c3ccc(F)c(F)c3CSc3c(Cl)cccc32)CC12CC2` (stereo not drawn) [Compound 18] the EC50 was 100 to 1000 nM. Compound `O=C1c2c(O)c(=O)ccn2N(C2c3ccccc3SCc3c2ccc(Cl)c3F)CC12CC2` (stereo not drawn) [Compound 19] has an EC50 of 100 to 1000 nM. In the case of `CC1CC12CN(C1c3ccccc3SCc3c1ccc(F)c3F)n1ccc(=O)c(O)c1C2=O` (stereo not drawn) [Compound 20], the EC50 is reported as 100 to 1000 nM. With `CC1N(C2c3ccccc3SCc3c2ccc(F)c3F)n2ccc(=O)c(O)c2C(=O)C12CC2` (stereo not drawn) [Compound 21] the EC50 was 100 to 1000 nM. Compound `CCC1N(C2c3ccccc3SCc3c2ccc(F)c3F)n2ccc(=O)c(O)c2C(=O)C12CC2` (stereo not drawn) [Compound 22] has an EC50 of 100 to 1000 nM. `O=C1c2c(O)c(=O)ccn2N(C2c3ccc(Cl)c(F)c3CSc3c(Cl)cccc32)CC12CC2` (stereo not drawn) [Compound 23] showed an EC50 of 100 to 1000 nM. Compound `O=C1c2c(O)c(=O)ccn2N(C2c3ccc(Cl)c(F)c3CSc3c(F)cccc32)CC12CC2` (stereo not drawn) [Compound 24] has an EC50 of less than 100 nM. With `C=CC1N(C2c3ccccc3SCc3c2ccc(F)c3F)n2ccc(=O)c(O)c2C(=O)C12CC2` (stereo not drawn) [Compound 25] the EC50 was 100 to 1000 nM. With `CC1N(C2c3ccc(F)c(F)c3CSc3c(F)cccc32)n2ccc(=O)c(O)c2C(=O)C12CC2` (stereo not drawn) [Compound 26] the EC50 was 100 to 1000 nM. Work on `Cc1cccc2c1SCc1c(ccc(F)c1F)C2N1C(C)C2(CC2)C(=O)c2c(O)c(=O)ccn21` (stereo not drawn) [Compound 27] yielded an EC50 of 100 to 1000 nM. Compound `Cc1cc(=O)c(O)c2n1N(C1c3ccccc3SCc3c1ccc(F)c3F)CC1(CC1)C2=O` (stereo not drawn) [Compound 28] has an EC50 of 100 to 1000 nM. With `O=C1c2c(O)c(=O)ccn2N(C2c3ccccc3SCc3cccc(Br)c32)CC12CC2` (stereo not drawn) [Compound 29] the EC50 was 100 to 1000 nM. With `Cc1cc(=O)c(O)c2n1N(C1c3ccc(F)c(F)c3CSc3c(F)cccc31)CC1(CC1)C2=O` (stereo not drawn) [Compound 30] the EC50 was 100 to 1000 nM. In the case of `Cc1cccc2c1SCc1c(ccc(F)c1F)C2N1CC2(CC2)C(=O)c2c(O)c(=O)cc(C)n21` (stereo not drawn) [Compound 31], the EC50 is reported as 100 to 1000 nM. `CCOC(=O)C1CC12CN(C1c3ccccc3SCc3c1ccc(F)c3F)n1ccc(=O)c(O)c1C2=O` (stereo not drawn) [Compound 32] gave an EC50 of 100 to 1000 nM. Compound `O=C(O)C1CC12CN(C1c3ccccc3SCc3c1ccc(F)c3F)n1ccc(=O)c(O)c1C2=O` (stereo not drawn) [Compound 33] has an EC50 of 100 to 1000 nM. In the case of `O=C1c2c(O)c(=O)ccn2N(C2c3ccccc3SCc3c2ccc(F)c3F)CC12CC2COCc1ccccc1` (stereo not drawn) [Compound 34], the EC50 is reported as 100 to 1000 nM. `CC1CC12CN(C1c3ccc(F)c(F)c3CSc3c(F)cccc31)n1ccc(=O)c(O)c1C2=O` (stereo not drawn) [Compound 35] gave an EC50 of less than 100 nM. With `Cc1cccc2c1SCc1c(ccc(F)c1F)C2N1CC2(CC2C)C(=O)c2c(O)c(=O)ccn21` (stereo not drawn) [Compound 36] the EC50 was 100 to 1000 nM. Compound `CCC1CC12CN(C1c3ccccc3SCc3c1ccc(F)c3F)n1ccc(=O)c(O)c1C2=O` (stereo not drawn) [Compound 37] has an EC50 of less than 100 nM. Compound `COCC1CC12CN(C1c3ccccc3SCc3c1ccc(F)c3F)n1ccc(=O)c(O)c1C2=O` (stereo not drawn) [Compound 38] has an EC50 of less than 100 nM. With `[2H]c1c([2H])c([2H])c2c(c1[2H])SCc1c(ccc(F)c1F)[C@@H]2N1CC2(CC2)C(=O)c2c(O)c(=O)ccn21` [Compound 39] the EC50 was less than 100 nM.
